Experimental data: patent US20250147039A1, “Compounds for complexation of rare earth elements and/or s-, p-, d- block metals, their coordination compounds, peptide conjugates, method of their preparation and use thereof” (USTAV ORGANICKE CHEMIE A BIOCHEMIE AV CR V.V.I., priority 2021, published 2025)
Each block holds one molecule with its values, some of them ahead of it.

Experiments:
[1] = Formation of 1,5-cz-[M(Lig)] from Lig and M^III ions (metal dependent click-zip) (Charts 4, 5); format: physicochemical; details: MOPS/NaOH buffer pH 7.0, TD728, TD827 in 50% i-PrOH; for conversion to 1,5-cz-[M(Lig)], Y^III: TD714 sum of two diastereoisomers
[2] = Formation of 1,5-cz-[M(Lig)] from Lig and M^II ions (metal dependent click-zip) (Charts 6, 7); format: physicochemical; details: MOPS/NaOH buffer pH 7.0; for conversion to 1,5-cz-[M(Lig)], Ca^II / conversion to 1,5-cz-[M(Lig)], Cd^II: TD728 in 50% i-PrOH
[3] = Alkali metal dependent formation of 1,5-cz-Lig and 1,4-cz-Lig isomers from Lig at pH 10.2 (Chart 14); format: physicochemical; details: Borate/(M^I)2CO3 buffer pH 10.2
[4] = Formation of 1,5-cz-[Ln(Lig)] from Lig and Ln^III ions (metal dependent click-zip), MOPS/NaOH buffer pH 7.0, analytical HPLC (Charts 1, 2); details: MOPS/NaOH buffer pH 7.0
[5] = 1 hour at 80° C., TD714 sum of two diastereoisomers
[6] = B: 1 day at 80° C., visible analyte free precipitate

conversion to 1,5-cz-[M(Lig)], Sc^III ([1]; 1 week at 80° C.): 0% | conversion to 1,5-cz-[M(Lig)], Y^III ([1]; 1 week at 80° C.): 14% | conversion to 1,5-cz-[M(Lig)], Sc^III ([1]; 1 hour at 80° C.): 0% | conversion to 1,5-cz-[M(Lig)], Y^III ([1]; 1 hour at 80° C.): 0% | conversion to 1,5-cz-[M(Lig)], Ba^II ([2]; 1 week at 80° C.): 0% | conversion to 1,5-cz-[M(Lig)], Sr^II ([2]; 1 week at 80° C.): 0% | conversion to 1,5-cz-[M(Lig)], Ca^II ([2]; 1 week at 80° C.): 0% | conversion to 1,5-cz-[M(Lig)], Cd^II ([2]; 1 week at 80° C.): 96% | conversion to 1,5-cz-[M(Lig)], Ba^II ([2]; 1 hour at 80° C.): 0% | conversion to 1,5-cz-[M(Lig)], Sr^II ([2]; 1 hour at 80° C.): 0% | conversion to 1,5-cz-[M(Lig)], Ca^II ([2]; 1 hour at 80° C.): 0% | conversion to 1,5-cz-[M(Lig)], Cd^II [2, 5]: 92% | conversion to 1,4-cz-Lig isomer, Cs^I ([3]; A: 1 hour at 80° C.): 2% | conversion to 1,4-cz-Lig isomer, K^I ([3]; A: 1 hour at 80° C.): 2% | conversion to 1,4-cz-Lig isomer, Li^I ([3]; A: 1 hour at 80° C.): 1% | conversion to 1,4-cz-Lig isomer, Na^I ([3]; A: 1 hour at 80° C.): 2% | conversion to 1,4-cz-Lig isomer, Rb^I ([3]; A: 1 hour at 80° C.): 2% | conversion to 1,5-cz-Lig isomer, Cs^I ([3]; A: 1 hour at 80° C.): 2% | conversion to 1,5-cz-Lig isomer, K^I ([3]; A: 1 hour at 80° C.): 2% | conversion to 1,5-cz-Lig isomer, Li^I ([3]; A: 1 hour at 80° C.): 12% | conversion to 1,5-cz-Lig isomer, Na^I ([3]; A: 1 hour at 80° C.): 30% | conversion to 1,5-cz-Lig isomer, Rb^I ([3]; A: 1 hour at 80° C.): 2% | conversion to 1,4-cz-Lig isomer, Cs^I ([3]; B: 1 day at 80° C.): 31% | conversion to 1,4-cz-Lig isomer, K^I ([3]; B: 1 day at 80° C.): 31% | conversion to 1,4-cz-Lig isomer, Na^I ([3]; B: 1 day at 80° C.): 4% | conversion to 1,4-cz-Lig isomer, Rb^I ([3]; B: 1 day at 80° C.): 31% | conversion to 1,5-cz-Lig isomer, Cs^I ([3]; B: 1 day at 80° C.): 21% | conversion to 1,5-cz-Lig isomer, K^I ([3]; B: 1 day at 80° C.): 23% | conversion to 1,5-cz-Lig isomer, Na^I ([3]; B: 1 day at 80° C.): 89% | conversion to 1,5-cz-Lig isomer, Rb^I ([3]; B: 1 day at 80° C.): 21% | conversion to 1,4-cz-Lig isomer, Li^I [3, 6]: 6% | conversion to 1,5-cz-Lig isomer, Li^I [3, 6]: 86% | conversion to 1,5-cz-[Ln(Lig)], Ce^III ([4]; after 1 week at 80° C.): 0% | conversion to 1,5-cz-[Ln(Lig)], Ce^III ([4]; after 1 hour at 80° C.): 0% | conversion to 1,5-cz-[Ln(Lig)], Dy^III ([4]; after 1 week at 80° C.): 37% | conversion to 1,5-cz-[Ln(Lig)], Dy^III ([4]; after 1 hour at 80° C.): 1% | conversion to 1,5-cz-[Ln(Lig)], Er^III ([4]; after 1 week at 80° C.): 26% | conversion to 1,5-cz-[Ln(Lig)], Er^III ([4]; after 1 hour at 80° C.): 1% | conversion to 1,5-cz-[Ln(Lig)], Eu^III ([4]; after 1 week at 80° C.): 31% | conversion to 1,5-cz-[Ln(Lig)], Eu^III ([4]; after 1 hour at 80° C.): 1% | conversion to 1,5-cz-[Ln(Lig)], Gd^III ([4]; after 1 week at 80° C.): 28% | conversion to 1,5-cz-[Ln(Lig)], Gd^III ([4]; after 1 hour at 80° C.): 0% | conversion to 1,5-cz-[Ln(Lig)], Ho^III ([4]; after 1 week at 80° C.): 31% | conversion to 1,5-cz-[Ln(Lig)], Ho^III ([4]; after 1 hour at 80° C.): 1% | conversion to 1,5-cz-[Ln(Lig)], La^III ([4]; after 1 week at 80° C.): 0% | conversion to 1,5-cz-[Ln(Lig)], La^III ([4]; after 1 hour at 80° C.): 0% | conversion to 1,5-cz-[Ln(Lig)], Lu^III ([4]; after 1 week at 80° C.): 10% | conversion to 1,5-cz-[Ln(Lig)], Lu^III ([4]; after 1 hour at 80° C.): 1% | conversion to 1,5-cz-[Ln(Lig)], Nd^III ([4]; after 1 week at 80° C.): 43% | conversion to 1,5-cz-[Ln(Lig)], Nd^III ([4]; after 1 hour at 80° C.): 4% | conversion to 1,5-cz-[Ln(Lig)], Pr^III ([4]; after 1 week at 80° C.): 55% | conversion to 1,5-cz-[Ln(Lig)], Pr^III ([4]; after 1 hour at 80° C.): 5% | conversion to 1,5-cz-[Ln(Lig)], Sm^III ([4]; after 1 week at 80° C.): 42% | conversion to 1,5-cz-[Ln(Lig)], Sm^III ([4]; after 1 hour at 80° C.): 1% | conversion to 1,5-cz-[Ln(Lig)], Tb^III ([4]; after 1 week at 80° C.): 41% | conversion to 1,5-cz-[Ln(Lig)], Tb^III ([4]; after 1 hour at 80° C.): 1% | conversion to 1,5-cz-[Ln(Lig)], Tm^III ([4]; after 1 week at 80° C.): 18% | conversion to 1,5-cz-[Ln(Lig)], Tm^III ([4]; after 1 hour at 80° C.): 1% | conversion to 1,5-cz-[Ln(Lig)], Yb^III ([4]; after 1 week at 80° C.): 15% | conversion to 1,5-cz-[Ln(Lig)], Yb^III ([4]; after 1 hour at 80° C.): 1%
SMILES: C#Cc1cccc(CN2CCN(CP(=O)(O)c3ccccc3)CCN(Cc3cccc(CN=[N+]=[N-])n3)CCN(CP(=O)(O)c3ccccc3)CC2)n1 [TD921]

conversion to 1,5-cz-[M(Lig)], Sc^III ([1]; 1 week at 80° C.): 1% | conversion to 1,5-cz-[M(Lig)], Y^III ([1]; 1 week at 80° C.): 82% | conversion to 1,5-cz-[M(Lig)], Sc^III ([1]; 1 hour at 80° C.): 0% | conversion to 1,5-cz-[M(Lig)], Y^III ([1]; 1 hour at 80° C.): 1% | conversion to 1,5-cz-[M(Lig)], Ca^II ([2]; 1 week at 80° C.): 83% | conversion to 1,5-cz-[M(Lig)], Cd^II ([2]; 1 week at 80° C.): 96% | conversion to 1,5-cz-[M(Lig)], Ca^II ([2]; 1 hour at 80° C.): 1% | conversion to 1,5-cz-[M(Lig)], Cd^II [2, 5]: 2% | conversion to 1,5-cz-[Ln(Lig)], Ce^III ([4]; after 1 week at 80° C.): 11% | conversion to 1,5-cz-[Ln(Lig)], Ce^III ([4]; after 1 hour at 80° C.): 0% | conversion to 1,5-cz-[Ln(Lig)], Dy^III ([4]; after 1 week at 80° C.): 76% | conversion to 1,5-cz-[Ln(Lig)], Dy^III ([4]; after 1 hour at 80° C.): 1% | conversion to 1,5-cz-[Ln(Lig)], Er^III ([4]; after 1 week at 80° C.): 93% | conversion to 1,5-cz-[Ln(Lig)], Er^III ([4]; after 1 hour at 80° C.): 3% | conversion to 1,5-cz-[Ln(Lig)], Eu^III ([4]; after 1 week at 80° C.): 51% | conversion to 1,5-cz-[Ln(Lig)], Eu^III ([4]; after 1 hour at 80° C.): 1% | conversion to 1,5-cz-[Ln(Lig)], Gd^III ([4]; after 1 week at 80° C.): 54% | conversion to 1,5-cz-[Ln(Lig)], Gd^III ([4]; after 1 hour at 80° C.): 1% | conversion to 1,5-cz-[Ln(Lig)], Ho^III ([4]; after 1 week at 80° C.): 84% | conversion to 1,5-cz-[Ln(Lig)], Ho^III ([4]; after 1 hour at 80° C.): 2% | conversion to 1,5-cz-[Ln(Lig)], La^III ([4]; after 1 week at 80° C.): 18% | conversion to 1,5-cz-[Ln(Lig)], La^III ([4]; after 1 hour at 80° C.): 0% | conversion to 1,5-cz-[Ln(Lig)], Lu^III ([4]; after 1 week at 80° C.): 99% | conversion to 1,5-cz-[Ln(Lig)], Lu^III ([4]; after 1 hour at 80° C.): 6% | conversion to 1,5-cz-[Ln(Lig)], Nd^III ([4]; after 1 week at 80° C.): 34% | conversion to 1,5-cz-[Ln(Lig)], Nd^III ([4]; after 1 hour at 80° C.): 0% | conversion to 1,5-cz-[Ln(Lig)], Pr^III ([4]; after 1 week at 80° C.): 27% | conversion to 1,5-cz-[Ln(Lig)], Pr^III ([4]; after 1 hour at 80° C.): 0% | conversion to 1,5-cz-[Ln(Lig)], Sm^III ([4]; after 1 week at 80° C.): 48% | conversion to 1,5-cz-[Ln(Lig)], Sm^III ([4]; after 1 hour at 80° C.): 1% | conversion to 1,5-cz-[Ln(Lig)], Tb^III ([4]; after 1 week at 80° C.): 68% | conversion to 1,5-cz-[Ln(Lig)], Tb^III ([4]; after 1 hour at 80° C.): 1% | conversion to 1,5-cz-[Ln(Lig)], Tm^III ([4]; after 1 week at 80° C.): 97% | conversion to 1,5-cz-[Ln(Lig)], Tm^III ([4]; after 1 hour at 80° C.): 4% | conversion to 1,5-cz-[Ln(Lig)], Yb^III ([4]; after 1 week at 80° C.): 98% | conversion to 1,5-cz-[Ln(Lig)], Yb^III ([4]; after 1 hour at 80° C.): 5%
SMILES: CC(C)(C)C#Cc1cccc(CN2CCN(CC(=O)O)CCN(Cc3cccc(CN=[N+]=[N-])n3)CCN(CC(=O)O)CC2)n1 [TD959]
